Where “and” joins values, the source holds several entries; their conditions need not be identical. Equal entries are not always repeated. *1 amine or outer side, *2 acyl side, *3 side chain or, on linkers, in order; H or OH if unused. Where a SMILES comes first, the peptide text is derived from it. Bridges are numbered along the chain shown (N, C = ends). [ ]: non-standard residue; d: D form. The star is where a group is joined. d1Nal = N[C@H](Cc1cccc2ccccc12)C(=O)O; Asu = N[C@@H](CCCCCC(=O)O)C(=O)O; X1 = O=C(C(N[*:1])S[*:3])[*:2]; Ahp = NCCCCCCC(=O)O; Bn = c1ccc(C*)cc1; Mpa = O=C(O)CCS
Tests used:
[1] = target: Somatostatin receptor type 3 (Homo sapiens, UniProt P32745)
[2] = target: Somatostatin receptor type 1 (Homo sapiens, UniProt P30872)
[3] = target: Somatostatin receptor type 4 (Homo sapiens, UniProt P31391)
[4] = target: Somatostatin receptor type 2 (Homo sapiens, UniProt P30874)
[5] = target: Somatostatin receptor type 5 (Homo sapiens, UniProt P35346)
Chain of Somatostatin receptor type 5 (P35346 whole entry): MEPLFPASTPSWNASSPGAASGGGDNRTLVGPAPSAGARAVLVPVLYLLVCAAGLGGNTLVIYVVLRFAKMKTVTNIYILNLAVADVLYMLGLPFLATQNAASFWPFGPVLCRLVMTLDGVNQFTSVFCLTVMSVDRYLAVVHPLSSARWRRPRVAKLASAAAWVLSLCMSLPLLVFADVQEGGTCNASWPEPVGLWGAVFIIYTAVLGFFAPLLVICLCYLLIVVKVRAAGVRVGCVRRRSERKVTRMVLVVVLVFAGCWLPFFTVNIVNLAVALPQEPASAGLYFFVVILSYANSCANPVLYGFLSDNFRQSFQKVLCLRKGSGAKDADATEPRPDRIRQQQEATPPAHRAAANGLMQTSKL

Chain of Somatostatin receptor type 1 (P30872 whole entry): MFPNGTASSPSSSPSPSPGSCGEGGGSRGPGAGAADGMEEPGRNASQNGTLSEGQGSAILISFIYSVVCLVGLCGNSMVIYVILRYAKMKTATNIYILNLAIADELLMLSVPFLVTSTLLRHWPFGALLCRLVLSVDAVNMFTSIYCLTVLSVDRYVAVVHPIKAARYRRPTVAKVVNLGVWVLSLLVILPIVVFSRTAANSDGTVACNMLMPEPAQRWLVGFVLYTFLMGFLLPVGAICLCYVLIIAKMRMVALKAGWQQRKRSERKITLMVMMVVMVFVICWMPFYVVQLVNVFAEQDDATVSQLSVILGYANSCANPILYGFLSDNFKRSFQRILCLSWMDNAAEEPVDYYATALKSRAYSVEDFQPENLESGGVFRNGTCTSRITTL
Chain of Somatostatin receptor type 2 (P30874 whole entry): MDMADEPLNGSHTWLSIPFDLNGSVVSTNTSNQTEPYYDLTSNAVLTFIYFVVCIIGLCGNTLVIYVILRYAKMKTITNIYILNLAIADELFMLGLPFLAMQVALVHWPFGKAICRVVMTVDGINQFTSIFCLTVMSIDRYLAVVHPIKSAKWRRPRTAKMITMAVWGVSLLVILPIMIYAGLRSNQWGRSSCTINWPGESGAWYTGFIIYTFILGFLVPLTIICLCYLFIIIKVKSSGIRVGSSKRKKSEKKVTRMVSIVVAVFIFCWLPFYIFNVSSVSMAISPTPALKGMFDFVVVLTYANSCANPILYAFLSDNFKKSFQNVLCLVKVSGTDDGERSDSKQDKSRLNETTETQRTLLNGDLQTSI
Chain of Somatostatin receptor type 3 (P32745 whole entry): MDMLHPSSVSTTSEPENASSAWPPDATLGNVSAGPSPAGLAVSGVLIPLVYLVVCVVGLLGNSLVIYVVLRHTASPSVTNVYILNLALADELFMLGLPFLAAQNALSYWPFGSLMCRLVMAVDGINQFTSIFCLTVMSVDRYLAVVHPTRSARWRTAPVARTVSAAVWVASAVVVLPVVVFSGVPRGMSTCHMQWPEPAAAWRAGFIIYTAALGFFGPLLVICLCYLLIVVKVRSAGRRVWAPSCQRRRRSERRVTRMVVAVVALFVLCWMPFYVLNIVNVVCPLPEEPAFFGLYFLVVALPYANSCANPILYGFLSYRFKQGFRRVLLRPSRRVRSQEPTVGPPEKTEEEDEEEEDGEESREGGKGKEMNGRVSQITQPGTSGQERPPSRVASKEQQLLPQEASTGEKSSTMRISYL
Chain of Somatostatin receptor type 4 (P31391 whole entry): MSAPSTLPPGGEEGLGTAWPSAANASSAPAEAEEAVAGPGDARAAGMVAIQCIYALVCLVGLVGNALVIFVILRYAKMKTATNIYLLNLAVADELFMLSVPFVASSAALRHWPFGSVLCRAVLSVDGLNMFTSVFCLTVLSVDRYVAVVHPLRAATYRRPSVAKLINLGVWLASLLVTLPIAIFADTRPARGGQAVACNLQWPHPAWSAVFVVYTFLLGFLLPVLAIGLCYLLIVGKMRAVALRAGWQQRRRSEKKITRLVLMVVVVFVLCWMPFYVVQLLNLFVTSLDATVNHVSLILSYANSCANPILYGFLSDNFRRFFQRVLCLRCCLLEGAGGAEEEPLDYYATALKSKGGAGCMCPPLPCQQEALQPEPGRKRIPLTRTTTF

Ki [1] | Ki [2] | Ki [3] | Ki [4] | Ki [5] | Compound
63.1 nM | 275 nM | 91.2 nM |  |  | CC(C)[C@H](NC(=O)[C@H](CCCCN)NC(=O)[C@@H](Cc1c[nH]c2ccccc12)NC(=O)[C@H](Cc1ccc(O)cc1)NC(=O)[C@H](Cc1ccccc1)NC(=O)[C@H](N)Cc1ccccc1)C(=O)N[C@@H](Cc1ccccc1)C(=O)N[C@H](Cc1cccc2ccccc12)C(N)=O [BIM 23056] (H-[dF]FY[dW]KVF[d1Nal]-NH2)
132 nM | 331 nM | 513 nM |  |  | C[C@@H](OCc1ccccc1)[C@@H]1NC(=O)[C@H](CCCCN)NC(=O)[C@@H](Cc2c[nH]c3ccccc23)NC(=O)[C@H](Cc2ccccc2)NC(=O)CCCCCCNC1=O [c[Aha-Phe-D-Trp-Lys-Thr(Bzl)]] (cyclo([Ahp]F[dW]KT(Bn)))
0.95 nM and 1.99 nM and 1.25 nM | 4.78 nM and 2.75 nM and 0.91 nM | 5.01 nM and 3.63 nM and 6.76 nM | 1.17 nM and 1.69 nM and 1.23 nM and 1 nM |  | C[C@@H](O)[C@@H]1NC(=O)[C@H](CCCCN)NC(=O)[C@H](Cc2c[nH]c3ccccc23)NC(=O)[C@H](Cc2ccccc2)NC(=O)[C@H](Cc2ccccc2)NC(=O)[C@H](CC(N)=O)NC(=O)[C@H](CCCCN)NC(=O)[C@@H](NC(=O)[C@@H]2CCCN2)CSSC[C@@H](C(=O)N[C@@H](CCCCN)C(=O)O)NC(=O)[C@H](CO)NC(=O)[C@H](CO)NC(=O)[C@H](Cc2ccc(O)cc2)NC1=O [CST14-Tyr10] (H-PCKNFFWKTYSSCK-OH; disulfide 2-13)
0.13 nM | 0.33 nM and 0.24 nM | 0.54 nM and 0.57 nM | 0.46 nM and 1.41 nM | 0.06 nM and 0.28 nM and 0.42 nM and 0.14 nM | CSCC[C@H](NC(=O)[C@H](CCCN=C(N)N)NC(=O)[C@@H](N)CC(=O)O)C(=O)N1CCC[C@H]1C(=O)N[C@H]1CSSC[C@@H](C(=O)N[C@@H](CCCCN)C(=O)O)NC(=O)[C@H](CO)NC(=O)[C@H](CO)NC(=O)[C@H](Cc2ccccc2)NC(=O)[C@H]([C@@H](C)O)NC(=O)[C@H](CCCCN)NC(=O)[C@H](Cc2c[nH]c3ccccc23)NC(=O)[C@H](Cc2ccccc2)NC(=O)[C@H](Cc2ccccc2)NC(=O)[C@H](CC(N)=O)NC(=O)[C@H](CCCN=C(N)N)NC1=O [Cortistatin]
0.08 nM and 0.14 nM and 0.54 nM | 0.74 nM and 0.6 nM and 0.52 nM | 0.42 nM and 0.69 nM and 0.74 nM |  | 7.58 nM | CC(C)C[C@H](NC(=O)[C@H](C)NC(=O)[C@@H]1CCCN1C(=O)[C@H](CC(N)=O)NC(=O)[C@H](CO)NC(=O)[C@H](CC(N)=O)NC(=O)[C@H](C)NC(=O)[C@@H](N)CO)C(=O)N[C@@H](C)C(=O)N1CCC[C@H]1C(=O)N[C@@H](CCCN=C(N)N)C(=O)N[C@@H](CCC(=O)O)C(=O)N[C@@H](CCCN=C(N)N)C(=O)N[C@@H](CCCCN)C(=O)N[C@@H](C)C(=O)NCC(=O)N[C@H]1CSSC[C@@H](C(=O)O)NC(=O)[C@H](CO)NC(=O)[C@H]([C@@H](C)O)NC(=O)[C@H](Cc2ccc(O)cc2)NC(=O)[C@H]([C@@H](C)O)NC(=O)[C@H](CCCCN)NC(=O)[C@@H](Cc2c[nH]c3ccccc23)NC(=O)[C@H](Cc2ccccc2)NC(=O)[C@H](Cc2ccccc2)NC(=O)[C@H](CC(N)=O)NC(=O)[C@H](CCCCN)NC1=O [LTT-SRIF28] (H-SANSNPALAPRERKAGCKNFF[dW]KTYTSC-OH; disulfide 17-28)
20.9 nM |  |  |  |  | CC(C)[C@@H]1NC(=O)[C@H](CCCCN)NC(=O)[C@@H](Cc2c[nH]c3ccccc23)NC(=O)[C@H](Cc2ccc(O)cc2)NC(=O)[C@H](C)N(C)C(=O)[C@H](Cc2ccccc2)NC1=O [seglitide]
0.7 nM | 3.54 nM | 2.39 nM |  |  | C[C@@H](O)[C@@H]1NC(=O)[C@H](Cc2ccc(O)cc2)NC(=O)[C@H]([C@@H](C)O)NC(=O)[C@H](CCCCN)NC(=O)[C@H](Cc2c[nH]c3ccccc23)NC(=O)[C@H](Cc2ccccc2)NC(=O)[C@H](Cc2ccccc2)NC(=O)[C@H](CC(N)=O)NC(=O)[C@H](CCCCN)NC(=O)CCCCC[C@@H](C(=O)O)NC(=O)[C@H](CO)NC1=O [CGP-23996] (KNFFWKTYTS[Asu]-OH; lactam N-11)
5.12 nM | 832 nM | 83.2 nM |  |  | C[C@@H](O)[C@@H]1NC(=O)[C@H](CCCCN)NC(=O)[C@@H](Cc2c[nH]c3ccccc23)NC(=O)[C@H](Cc2c[nH]c3ccccc23)NC(=O)[C@H](Cc2ccccc2)NC(=O)CCCCCCNC(=O)[C@H](Cc2ccccc2)NC1=O [L-362855] (cyclo([Ahp]FW[dW]KTF))
22.9 nM | 6760 nM | 2950 nM |  |  | CC(C)[C@@H]1NC(=O)[C@H](CCCCN)NC(=O)[C@@H](Cc2c[nH]c3ccccc23)NC(=O)[C@H](Cc2ccc(O)cc2)NC(=O)CCSSC(C(=O)N[C@@H](Cc2ccccc2)C(N)=O)NC1=O (stereo partly specified) [CAS_117580-24-2] ([Mpa]Y[dW]KV[X1]F-NH2; disulfide 1-6)
0.19 nM | 6.76 nM | 7.41 nM |  |  | C[C@@H](O)[C@H](NC(=O)[C@H](Cc1ccccc1)NC(=O)[C@@H](NC(=O)[C@H](CCCCN)NC(=O)[C@@H](Cc1c[nH]c2ccccc12)NC(=O)[C@H](Cc1ccccc1)NC(=O)[C@H](Cc1ccccc1)NC(=O)[C@H](N)Cc1ccccc1)[C@@H](C)O)C(N)=O [CAS_133073-82-2] (H-[dF]FF[dW]KTFT-NH2)
0.53 nM | 0.85 nM | 2.69 nM |  |  | C[C@@H](O)[C@@H]1NC(=O)[C@H](CCCCN)NC(=O)[C@H](Cc2c[nH]c3ccccc23)NC(=O)[C@H](Cc2ccccc2)NC(=O)[C@H](Cc2ccccc2)NC(=O)[C@H](CC(N)=O)NC(=O)[C@H](CCCCN)NC(=O)[C@@H](NC(=O)[C@@H]2CCCN2)CSSC[C@@H](C(=O)N[C@@H](CCCCN)C(=O)O)NC(=O)[C@H](CO)NC(=O)[C@H](CO)NC(=O)[C@H](Cc2ccccc2)NC1=O [Cortistatin(1-14)] (H-PCKNFFWKTFSSCK-OH; disulfide 2-13)
15.1 nM | 224 nM | 107 nM |  |  | CC(C)[C@@H]1NC(=O)[C@H](CCCCN)NC(=O)[C@@H](Cc2c[nH]c3ccccc23)NC(=O)[C@H](Cc2ccc(O)cc2)NC(=O)[C@@H](NC(=O)[C@H](N)Cc2ccccc2)CSSC[C@@H](C(=O)N[C@@H](Cc2c[nH]c3ccccc23)C(N)=O)NC1=O [CAS_71306] (H-[dF]CY[dW]KVCW-NH2; disulfide 2-7)
 | 2040 nM and 2690 nM and 1510 nM | 1290 nM and 513 nM and 676 nM |  |  | C[C@@H](O)[C@@H]1NC(=O)[C@H](CCCCN)NC(=O)[C@@H](Cc2c[nH]c3ccccc23)NC(=O)[C@H](Cc2ccc(O)cc2)NC(=O)[C@@H](NC(=O)[C@H](N)Cc2ccccc2)CSSC[C@@H](C(=O)N[C@H](CO)[C@@H](C)O)NC1=O [10-(4-Amino-butyl)-19-(2-amino-3-phenyl-propionylamino)-16-(4-hydroxy-benzyl)-7-(1-hydroxy-ethyl)-13-(1H-indol-3-ylmethyl)-6,9,12,15,18-pentaoxo-1,2-dithia-5,8,11,14,17-pentaaza-cycloicosane-4-carboxylic acid (2-hydroxy-1-hydroxymethyl-propyl)-amide]

Compound | Ki [1] | Ki [2] | Ki [3] | Ki [4] | Ki [5]
CC(C)[C@@H]1NC(=O)[C@H](CCCCN)NC(=O)[C@@H](Cc2c[nH]c3ccccc23)NC(=O)[C@H](Cc2ccc(O)cc2)NC(=O)[C@@H](NC(=O)[C@H](N)Cc2ccc3ccccc3c2)CSSC[C@@H](C(=O)N[C@H](C(N)=O)[C@@H](C)O)NC1=O [3-(2-Naphtyl)-D-Ala-L-Cys(1)-L-Tyr-D-Trp-L-Lys-L-Val-L-Cys(1)-L-Thr-NH2] | 11.7 nM | 178 nM |  | 0.37 nM | 
C[C@@H](O)[C@@H]1NC(=O)[C@H](CCCCN)NC(=O)[C@@H](Cc2c[nH]c3ccccc23)NC(=O)[C@H](Cc2ccccc2)NC(=O)[C@@H]2CCCN2C(=O)[C@H](Cc2ccccc2)NC1=O (cyclo(PF[dW]KTF)) | 107 nM | 2190 nM | 2290 nM |  | 

Reference: BindingDB's records for doi:10.1007/s002109900141 (Novartis Pharma, 1999)
